The record followed here is patent US5086050A, “Method of treating inflammatory disorders and psoriasis with salts of azelastine” (priority 1989, dated 1992).

What all share (format): physicochemical
Data set [1] is described as follows: Solubility in water at 20° C. (azelastine and previously known salts).
Data set [2] is described as follows: Solubility in water at room temperature (salts of the invention).
Data set [3] can be described thus: Solubility and pH value of the aqueous solution on addition of excess acid. From the text: Addition of excess amounts of acid increases the solubility of the salts. For example a 1-fold, preferably a 0.5-fold, in particular a 0.25-fold excess of acid may be used.
For example, the addition of acids yields the following solubility and following pH value of the aqueous solution: […]

Setting [4] is: aqueous solution, excess acid 0 mol.
The mark [5] stands for this setting: aqueous solution, excess acid 0.1 mol.
Setting [6] is: aqueous solution, excess acid 0.25 mol.

Counter-ions that a name gives are not always drawn. Like-named read-outs stand apart in the source and are kept apart here.

In the case of `CN1CCCC(n2nc(Cc3ccc(Cl)cc3)c3ccccc3c2=O)CC1` (stereo not drawn) [Azelastine, 4-(4-chlorobenzyl)-2-(perhydro-1methylazepine-4-yl)-1-(2H) phthalazinone], in data set [1], the Solubility in water was determined as 0.005%.

For the compound `CN1CCCC(n2nc(Cc3ccc(Cl)cc3)c3ccccc3c2=O)CC1` (stereo not drawn) [acetate, azelastine acetate], in data set [2], the Solubility in water result is given as “more than 10%”. Moreover, the pH value in data set [3] (setting [4]) is 6.35; in data set [3] (setting [5]), 5.52; in data set [3] (setting [6]), 5.1. Besides, the Solubility in data set [3] (aqueous solution, excess acid 0.1 mol, read-out: Solubility) worked out at 30 mg/mL; in data set [3] (aqueous solution, excess acid 0.25 mol, read-out: Solubility), 100 mg/mL; in data set [3] (excess acid 0 mol) it was 2%.

As for `CN1CCCC(n2nc(Cc3ccc(Cl)cc3)c3ccccc3c2=O)CC1` (stereo not drawn) [benzene sulphonate], the Solubility in water entry in data set [1] is recorded as “under 1%”.

For the compound `CN1CCCC(n2nc(Cc3ccc(Cl)cc3)c3ccccc3c2=O)CC1` (stereo not drawn) [embonate], in data set [1], the Solubility in water is given as 0.0015%.

With `CN1CCCC(n2nc(Cc3ccc(Cl)cc3)c3ccccc3c2=O)CC1` (stereo not drawn) [fumarate], the Solubility in water result in data set [1] is “under 1%”.

As for `CN1CCCC(n2nc(Cc3ccc(Cl)cc3)c3ccccc3c2=O)CC1` (stereo not drawn) [gluconate, azelastine gluconate], in data set [2], the Solubility in water entry is listed as “up to 55%”. Moreover, in data set [3] (aqueous solution, excess acid 0.5 mol), the pH value was 4.5. The Solubility in data set [3] (aqueous solution, excess acid 0.5 mol, read-out: Solubility) was 100 mg/mL.

Turning to `CN1CCCC(n2nc(Cc3ccc(Cl)cc3)c3ccccc3c2=O)CC1` (stereo not drawn) [hydrochloride], the Solubility in water in data set [1] is 1%.

Turning to `CN1CCCC(n2nc(Cc3ccc(Cl)cc3)c3ccccc3c2=O)CC1` (stereo not drawn) [lactate, azelastine lactate], the Solubility in water result in data set [2] is “more than 10%”. Further, the figures for the pH value in data set [3] (setting [4]), in data set [3] (setting [5]) and in data set [3] (setting [6]) were 5.15, 4.6 and 4.1, respectively. Moreover, the figures for the Solubility in data set [3] (excess acid 0 mol), in data set [3] (excess acid 0.1 mol) and in data set [3] (excess acid 0.25 mol) were 3%, 5% and 10%, respectively.

With `CN1CCCC(n2nc(Cc3ccc(Cl)cc3)c3ccccc3c2=O)CC1` (stereo not drawn) [malate, azelastine malate], the Solubility in water in data set [2] came out at 3%. The compound also displayed a pH value in data set [3] (setting [4]) of 3.85. The Solubility in data set [3] (excess acid 0 mol) was found to be 5%.

For the compound `CN1CCCC(n2nc(Cc3ccc(Cl)cc3)c3ccccc3c2=O)CC1` (stereo not drawn) [maleate], the Solubility in water entry in data set [1] is “ca. 1%”.

As for `CN1CCCC(n2nc(Cc3ccc(Cl)cc3)c3ccccc3c2=O)CC1` (stereo not drawn) [methane sulphonate], in data set [1], the Solubility in water result is “ca. 1%”.

With `CN1CCCC(n2nc(Cc3ccc(Cl)cc3)c3ccccc3c2=O)CC1` (stereo not drawn) [phosphate], the Solubility in water result in data set [1] is reported as “ca. 1%”.

Turning to `CN1CCCC(n2nc(Cc3ccc(Cl)cc3)c3ccccc3c2=O)CC1` (stereo not drawn) [succinate], the Solubility in water entry in data set [1] is reported as “ca. 1%”.

For the compound `CN1CCCC(n2nc(Cc3ccc(Cl)cc3)c3ccccc3c2=O)CC1` (stereo not drawn) [toluene sulphonate], in data set [1], the Solubility in water entry is on record as “under 1%”.
